These results are taken from publication PMC9343747 (Phytochemistry Letters, 2022).

The structures appear in SMILES notation.

The subject of data set [1] is SARS-CoV-2 pseudovirus. In words: microbe, parasite or virus in culture. The format is cell-based. To be noted: Severe acute respiratory syndrome-related coronavirus, read-out: Inhibition rate (%), 5.0 µM, BHK-21-hACE2 cells.
Data set [2] concerns SARS-CoV-2 pseudovirus. Description: microbe, parasite or virus in culture. Format: cell-based. To be noted: Severe acute respiratory syndrome-related coronavirus, read-out: EC50, concentration resulting in 50% inhibition of virus replication.
A short description of data set [3]: in vitro. Conditions: hamster, Cell viability (%), BHK-21-hACE2 cells.
In data set [4] the test system is influenza virus A/Puerto Rico/8/34 (H1N1). The format is cell-based. Conditions: read-out: IC50, concentration resulting in 50% inhibition of virus replication; A/Puerto Rico/8/34 (H1N1) in MDCK cells.

Broadly, the inhibition is the drop in the measured response relative to a control, in per cent. Usually viability stands for a read-out of living cells in per cent, often relative to untreated cells. As to `CCN(CC)Cc1cc(Nc2ccnc3cc(Cl)ccc23)ccc1O` [Amodiaquine, amodiaquine], the inhibition at 5 µM in data set [1] amounted to 92.4%. Besides, the EC50 in data set [2] came out at 3.17 µM. The viability at 20 µM in data set [3] amounted to 107%.
For `CCC(CC)O[C@@H]1C=C(C(=O)O)C[C@H](N)[C@H]1NC(C)=O` [Oseltamivir carboxylate], in data set [4], the IC50 is 6.4 µM.
